Test results reported in PubChem BioAssay (NCI).
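Where inhibition never reached the appropriate level, the endpoint shown equals the highest concentration tested. Otherwise, values were interpolated linearly from a five-concentration, 48-hour dose response in 96-well plates. TGI: total growth inhibition.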

What was measured:
Experiment in all cases: NCI-60 cell line screen, 48 h
HOP-92 NSCLC = test system: HOP-92 NSCLC
LOX IMVI melanoma = test system: LOX IMVI melanoma
RPMI-8226 leukemia = test system: RPMI-8226 leukemia
HS 578T breast = test system: HS 578T breast
OVCAR-8 ovarian = test system: OVCAR-8 ovarian
TK-10 renal = test system: TK-10 renal
SN12C renal = test system: SN12C renal
OVCAR-3 ovarian = test system: OVCAR-3 ovarian
SNB-75 CNS = test system: SNB-75 CNS
SF-539 CNS = test system: SF-539 CNS
NCI-H23 lung = test system: NCI-H23 lung

## CN(C)c1c(C2CC(O)C(CO)O2)c(=O)c1=O (centres undefined)
HOP-92 NSCLC
  TGI: > 100 µM
LOX IMVI melanoma
  TGI: > 100 µM
RPMI-8226 leukemia
  TGI: > 100 µM
HS 578T breast
  TGI: > 100 µM
OVCAR-8 ovarian
  TGI: > 100 µM
TK-10 renal
  TGI: > 100 µM
SN12C renal
  TGI: > 100 µM
OVCAR-3 ovarian
  TGI: > 100 µM
SNB-75 CNS
  TGI: > 100 µM
SF-539 CNS
  TGI: > 100 µM

## O=P(O)(O)CC1OC(CO)C(O)C1O (centres undefined)
HOP-92 NSCLC
  TGI: > 100 µM
LOX IMVI melanoma
  TGI: > 100 µM
HS 578T breast
  TGI: > 100 µM
OVCAR-8 ovarian
  TGI: > 100 µM
TK-10 renal
  TGI: > 100 µM
SN12C renal
  TGI: > 100 µM
NCI-H23 lung
  TGI: > 100 µM
OVCAR-3 ovarian
  TGI: > 100 µM
SNB-75 CNS
  TGI: > 100 µM
SF-539 CNS
  TGI: > 100 µM

## O=C1c2cc([N+](=O)[O-])sc2C(=O)c2cc([N+](=O)[O-])sc21
HOP-92 NSCLC
  TGI: 4.04 µM
LOX IMVI melanoma
  TGI: 3.68 µM
HS 578T breast
  TGI: 35 µM
OVCAR-8 ovarian
  TGI: 18.6 µM
TK-10 renal
  TGI: 13 µM
SN12C renal
  TGI: 7.12 µM
NCI-H23 lung
  TGI: 15.5 µM
OVCAR-3 ovarian
  TGI: 6.65 µM
SNB-75 CNS
  TGI: 26.3 µM
SF-539 CNS
  TGI: 8.51 µM

## NS(=O)(=O)c1nnc(NC(=O)/C=C/C(=O)O)s1
HOP-92 NSCLC
  TGI: > 100 µM
LOX IMVI melanoma
  TGI: > 100 µM
RPMI-8226 leukemia
  TGI: > 100 µM
HS 578T breast
  TGI: > 100 µM
OVCAR-8 ovarian
  TGI: > 100 µM
TK-10 renal
  TGI: > 100 µM
SN12C renal
  TGI: > 100 µM
NCI-H23 lung
  TGI: > 100 µM
OVCAR-3 ovarian
  TGI: > 100 µM
SF-539 CNS
  TGI: > 100 µM

## CC1(C)/C(=N\Nc2ccc([N+](=O)[O-])cc2[N+](=O)[O-])C2CCC1C2 (centres undefined)
HOP-92 NSCLC
  TGI: > 100 µM
LOX IMVI melanoma
  TGI: > 100 µM
RPMI-8226 leukemia
  TGI: > 100 µM
HS 578T breast
  TGI: 98.6 µM
OVCAR-8 ovarian
  TGI: > 100 µM
TK-10 renal
  TGI: > 100 µM
SN12C renal
  TGI: > 100 µM
NCI-H23 lung
  TGI: > 100 µM
OVCAR-3 ovarian
  TGI: > 100 µM
SNB-75 CNS
  TGI: 65.8 µM

## O=C1/C(=C\c2cccc(Oc3ccccc3)c2)SC(c2ccccc2)N1c1cccc(Cl)c1 (centres undefined)
HOP-92 NSCLC
  TGI: > 100 µM
LOX IMVI melanoma
  TGI: > 100 µM
RPMI-8226 leukemia
  TGI: > 100 µM
HS 578T breast
  TGI: > 100 µM
OVCAR-8 ovarian
  TGI: > 100 µM
TK-10 renal
  TGI: > 100 µM
SN12C renal
  TGI: > 100 µM
NCI-H23 lung
  TGI: > 100 µM
OVCAR-3 ovarian
  TGI: > 100 µM

## OC1(C2(c3ccc(Cl)cc3)CCCC2)c2ccccc2C2=NCCN21 (centres undefined)
HOP-92 NSCLC
  TGI: 28.6 µM
LOX IMVI melanoma
  TGI: 28.3 µM
HS 578T breast
  TGI: > 100 µM
OVCAR-8 ovarian
  TGI: 32 µM
TK-10 renal
  TGI: 28.9 µM
SN12C renal
  TGI: 31.5 µM
NCI-H23 lung
  TGI: 36.1 µM
OVCAR-3 ovarian
  TGI: 30.9 µM
SNB-75 CNS
  TGI: 12.7 µM

## COc1ccc(NC(=O)CC(=O)N2N=C(C)C(N=Nc3ccc(C(=O)O)cc3)C2=O)cc1 (centres undefined)
HOP-92 NSCLC
  TGI: > 100 µM
LOX IMVI melanoma
  TGI: > 100 µM
HS 578T breast
  TGI: > 100 µM
OVCAR-8 ovarian
  TGI: > 100 µM
TK-10 renal
  TGI: > 100 µM
SN12C renal
  TGI: > 100 µM
NCI-H23 lung
  TGI: > 100 µM
OVCAR-3 ovarian
  TGI: > 100 µM
SNB-75 CNS
  TGI: > 100 µM
SF-539 CNS
  TGI: > 100 µM

## S=C(S)N1CCN(c2ccccc2)CC1
HOP-92 NSCLC
  TGI: > 100 µM
LOX IMVI melanoma
  TGI: > 100 µM
RPMI-8226 leukemia
  TGI: 77.3 µM
HS 578T breast
  TGI: > 100 µM
OVCAR-8 ovarian
  TGI: > 100 µM
TK-10 renal
  TGI: > 100 µM
SN12C renal
  TGI: > 100 µM
OVCAR-3 ovarian
  TGI: > 100 µM
SNB-75 CNS
  TGI: > 100 µM
SF-539 CNS
  TGI: > 100 µM

## COc1ccc(NC(=S)Nc2c(C)n(C)n(-c3ccccc3)c2=O)cc1
HOP-92 NSCLC
  TGI: > 100 µM
LOX IMVI melanoma
  TGI: > 100 µM
RPMI-8226 leukemia
  TGI: > 100 µM
HS 578T breast
  TGI: > 100 µM
OVCAR-8 ovarian
  TGI: > 100 µM
TK-10 renal
  TGI: > 100 µM
NCI-H23 lung
  TGI: > 100 µM
OVCAR-3 ovarian
  TGI: > 100 µM
SNB-75 CNS
  TGI: > 100 µM
SF-539 CNS
  TGI: > 100 µM

## CCCCN1CCC(O)(c2cc(C(=O)O)[nH]c2-c2cc(C)no2)C1=O (centres undefined)
HOP-92 NSCLC
  TGI: > 100 µM
RPMI-8226 leukemia
  TGI: > 100 µM
HS 578T breast
  TGI: > 100 µM
OVCAR-8 ovarian
  TGI: > 100 µM
TK-10 renal
  TGI: > 100 µM
NCI-H23 lung
  TGI: > 100 µM
OVCAR-3 ovarian
  TGI: > 100 µM
SNB-75 CNS
  TGI: > 100 µM

## OC[C@@H](O)[C@H](O)[C@@H](O)/C=N/Nc1ccc(Cl)nn1
HOP-92 NSCLC
  TGI: > 100 µM
LOX IMVI melanoma
  TGI: > 100 µM
RPMI-8226 leukemia
  TGI: > 100 µM
HS 578T breast
  TGI: > 100 µM
OVCAR-8 ovarian
  TGI: > 100 µM
TK-10 renal
  TGI: > 100 µM
SN12C renal
  TGI: > 100 µM
NCI-H23 lung
  TGI: > 100 µM
OVCAR-3 ovarian
  TGI: > 100 µM
SF-539 CNS
  TGI: > 100 µM

## CCCCCCC(=O)c1ccc2ccccc2c1O
HOP-92 NSCLC
  TGI: > 100 µM
LOX IMVI melanoma
  TGI: > 100 µM
RPMI-8226 leukemia
  TGI: > 100 µM
HS 578T breast
  TGI: > 100 µM
OVCAR-8 ovarian
  TGI: > 100 µM
TK-10 renal
  TGI: > 100 µM
NCI-H23 lung
  TGI: > 100 µM
SNB-75 CNS
  TGI: > 100 µM
SF-539 CNS
  TGI: > 100 µM

## CS(=O)(=O)CCC(N)P(=O)(O)O (centres undefined)
HOP-92 NSCLC
  TGI: > 100 µM
LOX IMVI melanoma
  TGI: > 100 µM
RPMI-8226 leukemia
  TGI: > 100 µM
HS 578T breast
  TGI: > 100 µM
OVCAR-8 ovarian
  TGI: > 100 µM
TK-10 renal
  TGI: > 100 µM
SN12C renal
  TGI: > 100 µM
NCI-H23 lung
  TGI: > 100 µM
OVCAR-3 ovarian
  TGI: > 100 µM
SNB-75 CNS
  TGI: > 100 µM

## C=CC(C)(C)n1cc(C2=C(O)C(=O)C(c3c(CC=C(C)C)[nH]c4ccccc34)=C(O)C2=O)c2ccccc21
HOP-92 NSCLC
  TGI: 3.35 µM
LOX IMVI melanoma
  TGI: 5.38 µM
HS 578T breast
  TGI: 25 µM
OVCAR-8 ovarian
  TGI: 4.57 µM
SN12C renal
  TGI: 3.6 µM
NCI-H23 lung
  TGI: 19.6 µM
OVCAR-3 ovarian
  TGI: 3.05 µM
SNB-75 CNS
  TGI: 4.1 µM

## Clc1nc(Nc2nc3ccccc3[nH]2)nc(Cl)c1-c1ccccc1
HOP-92 NSCLC
  TGI: 35 µM
RPMI-8226 leukemia
  TGI: > 100 µM
HS 578T breast
  TGI: 56.4 µM
OVCAR-8 ovarian
  TGI: 69.4 µM
TK-10 renal
  TGI: > 100 µM
SN12C renal
  TGI: 31.1 µM
NCI-H23 lung
  TGI: 58.4 µM
SNB-75 CNS
  TGI: 39.7 µM
SF-539 CNS
  TGI: 34.6 µM

## Nc1ncnc2c1cnn2COCC(O)CO (centres undefined)
HOP-92 NSCLC
  TGI: > 100 µM
LOX IMVI melanoma
  TGI: > 100 µM
RPMI-8226 leukemia
  TGI: > 100 µM
HS 578T breast
  TGI: > 100 µM
OVCAR-8 ovarian
  TGI: > 100 µM
TK-10 renal
  TGI: > 100 µM
SN12C renal
  TGI: > 100 µM
NCI-H23 lung
  TGI: > 100 µM
OVCAR-3 ovarian
  TGI: > 100 µM
SF-539 CNS
  TGI: > 100 µM

## COc1cc(C(=O)N(C(=S)OC23CC4CC(CC(C4)C2)C3)c2ccccc2)cc(OC)c1OC
HOP-92 NSCLC
  TGI: > 100 µM
HS 578T breast
  TGI: > 100 µM
OVCAR-8 ovarian
  TGI: > 100 µM
TK-10 renal
  TGI: > 100 µM
SN12C renal
  TGI: > 100 µM
NCI-H23 lung
  TGI: > 100 µM
OVCAR-3 ovarian
  TGI: > 100 µM
SNB-75 CNS
  TGI: > 100 µM
SF-539 CNS
  TGI: > 100 µM

## CCOC(=O)c1csc(-c2nc(CCNC(=O)c3ccccc3)sc2Cl)n1
HOP-92 NSCLC
  TGI: 46.4 µM
RPMI-8226 leukemia
  TGI: > 100 µM
HS 578T breast
  TGI: > 100 µM
OVCAR-8 ovarian
  TGI: > 100 µM
TK-10 renal
  TGI: > 100 µM
SN12C renal
  TGI: > 100 µM
NCI-H23 lung
  TGI: > 100 µM
OVCAR-3 ovarian
  TGI: > 100 µM
SNB-75 CNS
  TGI: > 100 µM
SF-539 CNS
  TGI: > 100 µM

## NS(=O)(=O)c1ccc(N2C(=O)C(=O)N(c3ccccc3)C2=S)cc1
HOP-92 NSCLC
  TGI: 95.9 µM
LOX IMVI melanoma
  TGI: > 100 µM
RPMI-8226 leukemia
  TGI: > 100 µM
HS 578T breast
  TGI: > 100 µM
OVCAR-8 ovarian
  TGI: > 100 µM
TK-10 renal
  TGI: > 100 µM
SN12C renal
  TGI: > 100 µM
NCI-H23 lung
  TGI: > 100 µM
SNB-75 CNS
  TGI: > 100 µM
SF-539 CNS
  TGI: > 100 µM

## COc1cc2c3c(c1OC)C(=O)C(=O)C1=C3N(CCC1)CC2
HOP-92 NSCLC
  TGI: 60.4 µM
LOX IMVI melanoma
  TGI: > 100 µM
HS 578T breast
  TGI: 47.6 µM
OVCAR-8 ovarian
  TGI: > 100 µM
TK-10 renal
  TGI: > 100 µM
SN12C renal
  TGI: > 100 µM
NCI-H23 lung
  TGI: 86.3 µM
OVCAR-3 ovarian
  TGI: 73.3 µM
SF-539 CNS
  TGI: 80.1 µM

## COc1ncc(C#CC(=O)c2ccccc2)c(OC)n1
HOP-92 NSCLC
  TGI: 4.3 µM
LOX IMVI melanoma
  TGI: 3 µM
RPMI-8226 leukemia
  TGI: > 21.9 µM
HS 578T breast
  TGI: 87 µM
OVCAR-8 ovarian
  TGI: 8.72 µM
SN12C renal
  TGI: 2.78 µM
NCI-H23 lung
  TGI: 10.9 µM
OVCAR-3 ovarian
  TGI: 10.3 µM
SNB-75 CNS
  TGI: 14 µM
